Laboratory results as given in patent US20250376479A1, “EXATECAN DERIVATIVES AND USES THEREOF” (priority 2024, published 2025).

Key:
HT55 = assay: Cytotoxicity test, luminescent cell viability; format: cell-based; conditions: Homo sapiens; HT55 (Colon carcinoma), 72-hour incubation
Source text: (§1) Cytotoxicity of compounds was investigated using SHP77 (SCLC ATCC No. CRL-2195), NCI-H82 (SCLC, Jennio-bio No. JNO-22126A), NCI-H524 (SCLC, Pricella NO. CL-0403), NCI-H226 (Lung cancer, Pricella NO. CL-0396), NCI-H460 (LCLC, Pricella NO. CL-0299), OVCAR3 (Ovarian cancer, ATCC No. HTB-161), OV90 (Ovarian cancer, ATCC No. CRL-11732), LS1034 (Colon carcinoma, cobioer No. CBP60013), HT55 (Colon carcinoma, cobioer No. CBP60012), MDA-MB-468 (Breast cancer, ATCC No.htb-132) and NCI-N87 (Stomach cancer, ATCC No.CRL-5822). In brief, 5,000 cells/well of cancer cells were platted in white 96-well assay plates with flat clear bottom (Cat. No. BS-MP-96W, Biosharp) (excluding edge wells, which contained medium or PBS only) in 90 μL basic culture medium and were grown at 37° C. in a humidified incubator at 5% CO2 atmosphere. After incubation overnight, each compound was added to the respective wells in an amount of 10 μl of 10× concentrate tests from 100 nM to 0.015 nM. After additional 72-hour incubation, plates were removed from incubator and equilibrated to room temperature. After approximately 30 mins, 50 μL of Cell counting-lite 2.0 Luminescent Cell Viability Assay (Cat. No. G7573, Promega) were added to each well. After shaking the plates at 450 rpm for 3 mins followed by 10-min incubation without shaking, luminescence was measured on the Envision plate reader (Equipment No. 2104, PerkinElmer) with integration time of 250 ms per well. Curves of luminescence versus concentration (nM) were fitted with GraphPad Prism Software.

LS1034 = assay: Cytotoxicity test, luminescent cell viability; format: cell-based; conditions: Homo sapiens, LS-1034; LS1034 (Colon carcinoma), 72-hour incubation
Source text: as §1

MDA-MB-468 = assay: Cytotoxicity test, luminescent cell viability; format: cell-based; conditions: Homo sapiens; MDA-MB-468 (Breast cancer), 72-hour incubation
Source text: as §1

NCI-H226 = assay: Cytotoxicity test, luminescent cell viability; format: cell-based; conditions: Homo sapiens; NCI-H226 (Lung cancer), 72-hour incubation
Source text: as §1

NCI-H460 = assay: Cytotoxicity test, luminescent cell viability; format: cell-based; conditions: Homo sapiens; NCI-H460 (LCLC), 72-hour incubation
Source text: as §1

NCI-H524 = assay: Cytotoxicity test, luminescent cell viability; format: cell-based; conditions: Homo sapiens; NCI-H524 (SCLC), 72-hour incubation
Source text: as §1

NCI-H82 = assay: Cytotoxicity test, luminescent cell viability; format: cell-based; conditions: Homo sapiens; NCI-H82 (SCLC), 72-hour incubation
Source text: as §1

NCI-N87 = assay: Cytotoxicity test, luminescent cell viability; format: cell-based; conditions: Homo sapiens; NCI-N87 (Stomach cancer), 72-hour incubation; read-out: IC50 NC-N87
Source text: as §1

OV90 = assay: Cytotoxicity test, luminescent cell viability; format: cell-based; conditions: Homo sapiens, OV-90; OV90 (Ovarian cancer), 72-hour incubation
Source text: as §1

OVCAR3 = assay: Cytotoxicity test, luminescent cell viability; format: cell-based; conditions: Homo sapiens, OVCAR-3; OVCAR3 (Ovarian cancer), 72-hour incubation
Source text: as §1

SHP77 = assay: Cytotoxicity test, luminescent cell viability; format: cell-based; conditions: Homo sapiens; SHP77 (SCLC), 72-hour incubation
Source text: as §1

[1] = Membrane permeability test (Caco-2 monolayer); format: in vitro ADME; conditions: human, Caco-2, pH 7.4
Method: Caco-2 cells purchased from ATCC were seeded onto 0.4 μm pore polycarbonate membranes (PC) in 96-well Corning Insert plates at 3.5×10^4 cells/cm^2, and refreshed medium every 4˜5 days until to the 21st to 28th day for confluent cell monolayer formation.
The transport buffer in the study was HBSS with 10.0 mM HEPES at pH 7.40±0.05. Each test compound was tested at 2.00 μM in the presence or absence of 1.00 μM zosuquidar bi-directionally in duplicate. Digoxin was tested at 10.0 μM in the presence or absence of 1.00 μM zosuquidar bi-directionally in duplicate, while nadolol and metoprolol were tested at 2.00 μM in the absence of zosuquidar in A to B direction in duplicate. Final DMSO concentration was adjusted to less than 1%. The plate was incubated for 2 hours in CO2 incubator at 37.0° C., with 5% CO2 at saturated humidity without shaking. And all samples after mixed with acetonitrile containing internal standard were centrifuged at 3220×g for 10 min. Concentrations of test compounds in starting solution, donor solution and receiver solution were quantified by LC-MS/MS methodologies, using peak area ratio of analyte/internal standard. And permeation of lucifer yellow through the monolayer was measured to evaluate the cellular integrity.
The apparent permeability coefficient Papp (cm/s) was calculated using the equation: […]
where dCr/dt is the cumulative concentration of compound in the receiver chamber as a function of time; Vr is the solution volume in the receiver chamber (0.0750 mL on the apical side, 0.250 mL on the basolateral side); A is the surface area for the transport, i.e., 0.143 cm2 for the area of the monolayer; C0 is the initial concentration in the donor chamber.

Row | Compound | IC50 (HT55) [nM] | IC50 (LS1034) [nM] | IC50 (MDA-MB-468) [nM] | IC50 (NCI-H226) [nM] | IC50 (NCI-H460) [nM] | IC50 (NCI-H524) [nM] | IC50 (NCI-H82) [nM] | IC50 (NCI-N87) [nM] | IC50 (OV90) [nM] | IC50 (OVCAR3) [nM] | IC50 (SHP77) [nM] | Papp A→B at 2 h, 2 μM [1] [×10⁻⁶ cm/s]
1 | CC[C@@]1(O)C(=O)OCc2c1cc1n(c2=O)Cc2c-1nc1cc(F)c(C)c3c1c2[C@H](NC(=O)C1CCC1)CC3 [Compound 6] | 215 | 55.3 | 2.5 | 3.8 | 6.8 | 9.9 | 57.3 | 3.5 | 8.9 | 89.3 | 68 | 0.264
2 | CC[C@@]1(O)C(=O)OCc2c1cc1n(c2=O)Cc2c-1nc1cc(F)c(C)c3c1c2[C@H](NC(=O)CCOC)CC3 [Compound 5] | 192 | 158 | 5.1 | 9.8 | 19.4 | 21.5 | 288 | 16.8 | 9.6 | 270 | 202 | 0.105
3 | CC[C@@]1(O)C(=O)OCc2c1cc1n(c2=O)Cc2c-1nc1cc(F)c(C)c3c1c2[C@H](NC(=O)C1CCCO1)CC3 (some centres unmarked) [Compound 7] | 104 | 170 | 4.8 | 17.9 | 11.2 | 39.5 | 171 | 7.4 | 26 | 144 | 236 | 0.56
4 | CC[C@@]1(O)C(=O)OCc2c1cc1n(c2=O)Cc2c-1nc1cc(F)c(C)c3c1c2[C@H](NC(=O)C1CC1)CC3 [Compound 3] | 68.1 | 41.7 | 2.1 | 3.6 | 8.9 | 11.3 | 50.2 | 5.3 | 5.1 | 91.2 | 60 | 0.279
5 | CC[C@@]1(O)C(=O)OCc2c1cc1n(c2=O)Cc2c-1nc1cc(F)c(C)c3c1c2[C@H](NC(=O)CN(C)C)CC3 [Compound 2] | 315 | 205 | 10.8 | 21 | 15.5 | 40.4 | 154 | 13 | 15.2 | 208 | 301 | 0.199
6 | CC[C@@]1(O)C(=O)OCc2c1cc1n(c2=O)Cc2c-1nc1cc(F)c(C)c3c1c2[C@H](NC(=O)C(C)C)CC3 [Compound 10] | 69.6 | 114 | 2.9 | 5.1 | 7.4 | 17.9 | 61.7 | 5.2 | 9.8 | 68.1 | 101 | 0.358
7 | CC[C@@]1(O)C(=O)OCc2c1cc1n(c2=O)Cc2c-1nc1cc(F)c(C)c3c1c2[C@H](NC(=O)CC(C)C)CC3 [Compound 8] | 110 | 159 | 2.1 | 6 | 4.5 | 21 | 53.8 | 4.7 | 17.8 | 95.7 | 156 | 
8 | CC[C@@]1(O)C(=O)OCc2c1cc1n(c2=O)Cc2c-1nc1cc(F)c(C)c3c1c2[C@H](NC(=O)C1COC1)CC3 [Compound 4] | 349 | 249 | 6.7 | 44.6 | 31.2 | 90.6 | 1500 | 29.6 | 76 | 395 | 655 | 0.026
9 | CCCCC(=O)N[C@@H]1CCc2c(C)c(F)cc3nc4c(c1c23)Cn1c-4cc2c(c1=O)COC(=O)[C@]2(O)CC [Compound 1] | 130 | 63.5 | 2.5 | 4.8 | 10.2 | 4.4 | 96 | 6.2 | 3.9 | 92.9 | 45.7 | 0.365
